Where two headings read alike, the source gives them in different places. Values belong to the compound of their own block, whether it stands above or below them.
Legend:
[1] = tested on: primary human pan T cells; experiment: Human T-Cell IL2 Induction Assay; type: cell-based; details: anti-CD3/anti-CD28 stimulated primary human pan T cells
Description: Human T-Cell IL2 Induction Assay
Anti-CD3 and anti-CD28 activates TCR signaling in primary human pan T cells leading to IL-2 promoter induction. Secreted IL-2 in cell culture supernatant is detected by electrochemiluminescence using a capture antibody against IL-2 and an anti-IL-2 antibody labeled with SULFO-tag.
See www.mesoscale.com for additional electrochemiluminescence technology information.
Incubate primary human pan T cells with varying concentrations of test compounds for 30 minutes in a humidified incubator at 37° C. and 5% CO2. Transfer cells to a plate pre-coated with a fixed concentration of anti-human CD3 (determined separately for each donor lot) and add soluble anti-human CD28 (final concentration=1 μg/ml). Stimulate cells in a humidified incubator at 37° C. and 5% CO2 for 4 hours. Transfer 25 μl of supernatant to a MSD single spot plate pre-coated with an anti-human IL-2 antibody. Incubate MSD plate overnight at 4° C. with gentle shaking. Wash MSD plate 4× with wash buffer. Add SULFO-tagged detection antibody at a 1:50 dilution and incubate at room temperature shaking for 2 hours. Wash MSD plate 4× with wash buffer and add 150 μl 2×MSD read buffer. Read on an MSD instrument. Normalize data to stimulated/untreated controls to calculate % activity at each concentration of compound.
Materials: • Frozen Primary Human Pan-T Cells (StemCell Technologies #70024) • anti-human CD3 (OKT3 clone) (eBioscience #16-0037-81) • anti-human CD28 (CD28.2 clone) (BD #555725) • 96-well Human IL-2 tissue culture kit (MSD #K151AHB-4)
Instrumentation: • Biomek FX for liquid handling (Beckman Coulter) • MSD SECTOR S 600 (Meso Scale Discovery)
Exemplary compounds of Formula I or Ia were tested in the human T-cell IL-2 induction assays. The % increase measured for IL-2 in cells treated by the test compounds relative to untreated cells are provided in Table B2 for certain compounds (structures as shown with the HPK1 Ki values).

HPK1 [2] = molecular target: HPK1 (Homo sapiens, UniProt Q92918); experiment: HPK1 Lantha Binding Assay ("Lanth")
Chain of HPK1 (Homo sapiens, UniProt Q92918) (Q92918 whole entry, looked up): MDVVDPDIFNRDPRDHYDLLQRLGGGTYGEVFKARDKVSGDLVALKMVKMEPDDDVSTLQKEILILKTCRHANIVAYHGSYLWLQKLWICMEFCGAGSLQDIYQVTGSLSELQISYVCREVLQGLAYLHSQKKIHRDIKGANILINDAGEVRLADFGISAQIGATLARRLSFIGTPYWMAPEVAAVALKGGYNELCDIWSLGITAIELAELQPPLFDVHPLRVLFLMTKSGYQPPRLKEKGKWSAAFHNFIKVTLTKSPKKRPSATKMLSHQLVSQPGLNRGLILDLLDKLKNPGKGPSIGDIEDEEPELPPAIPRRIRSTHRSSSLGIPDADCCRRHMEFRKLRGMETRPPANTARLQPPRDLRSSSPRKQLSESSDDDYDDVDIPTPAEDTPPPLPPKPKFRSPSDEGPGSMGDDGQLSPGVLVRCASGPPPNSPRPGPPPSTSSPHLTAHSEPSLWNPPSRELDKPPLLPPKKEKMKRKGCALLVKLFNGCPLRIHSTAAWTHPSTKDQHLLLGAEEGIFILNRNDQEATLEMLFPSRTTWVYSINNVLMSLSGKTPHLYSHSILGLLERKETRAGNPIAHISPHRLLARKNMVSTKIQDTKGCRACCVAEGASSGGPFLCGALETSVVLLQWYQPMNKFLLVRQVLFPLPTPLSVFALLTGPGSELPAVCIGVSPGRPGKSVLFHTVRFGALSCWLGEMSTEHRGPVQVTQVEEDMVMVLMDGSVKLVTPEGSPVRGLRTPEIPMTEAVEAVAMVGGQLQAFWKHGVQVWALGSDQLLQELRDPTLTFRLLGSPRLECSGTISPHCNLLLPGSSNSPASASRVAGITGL
Procedure, shortened: (§1)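 Compounds in an 11-point 5-fold series were preincubated 1 h at 23 C with 2 nM kinase plus 2 nM Eu-anti-GST antibody. Then 15 nM Tracer222 was added for another hour, and time-resolved FRET was read at 665/615 nm. Ki values come from a Morrison tight-binding model that uses the tracer Kd.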

[3] = molecular target: HPK1-FL (HPK full length, T165E S171E) (Homo sapiens (Human), UniProt Q92918, S171E/T165E); experiment: HPK1-FL HTRF Enzymatic Assay ("HTRF"); type: biochemical
Chain of HPK1-FL (HPK full length, T165E S171E) (Q92918 whole entry T165E/S171E): as the sequence (Q92918 whole entry, looked up) above, with T165E, S171E counted along it
Description: HPK1-FL HTRF Enzymatic Assay (“HTRF”)
HPK-FL enzyme phosphorylates Biotin-SLP-76 substrate in the presence of ATP at 1 mM and varying concentrations of test compound. Product is detected by FRET using Eu-anti-pSLP76 Ab and SA-XL665. See www.cisbio.com/HTRF for additional HTRF technology information.
Instrumentation: • Echo555 compound dispenser • Agilent Bravo • Perkin Elmer Envision
Materials: • Assay plate: White ProxiPlate 384 F (PerkinElmer cat #6008289) • Kinase: HPK full length double mutant • Substrate: Biotin-SLP76 • ATP: 100 mM ATP • BSG: 2% BSG • DMSO: DMSO (Sigma cat #34869-100ML) • Reaction Buffer: H2O/50 mM HEPES, pH 7.5/10 mM MgCl2/2 mM TCEP/0.01% Brij-35/0.01% BSG • Detection mix: Eu-anti-pSLP76/SA-XL665 (Cisbio, #610SAXAC)
Assay Procedure Ki Determination:
To a 384 well Proxiplate with 80 nL compound or DMSO spotted on was added 4 μl/well kinase mix. The mixture was preincubated for 30 minutes and then 4 μl/well substrate mix was added. The solution was incubated for 60 min and then 4 μl/well detection mix was added. The solution was incubated for another 60 min. The plates were then loaded onto a Perkin Elmer Envision and the TR-FRET signal was measured at 615 and 665 nm. A ratio of […] was used to calculate the % activity at each concentration of compound.

HPK1 [4] = experiment: HPK1 Lantha Binding Assay ("Lanth")
Procedure, shortened: as §1

[5] = Table B2, read-out: HPK1 Ki (nM), L = Lanth
[6] = ATP 1 mM, Table B1-2, read-out: HPK1 Ki, H = HTRF
[7] = Table B1-1, read-out: HPK1 Ki (μM) (Lanth)
[8] = Table B1-2, read-out: HPK1 Ki, L = Lanth

- Ki [3, 6]: 39.7 nM
SMILES: Cc1cc(-c2ncco2)cc(F)c1-c1cc2cc(NC(=O)[C@H]3[C@@H](C)[C@@H]3c3cnn(C)c3)ncc2c(N)n1 (single isomer, unassigned) [Compound 350]

- Ki [3, 6]: 5 nM
SMILES: Cc1cc(C(N)=O)cc(F)c1-c1cc2cc(NC(=O)[C@@H]3C[C@H]3c3cnn(C)c3)ncc2c(N)n1 (single isomer, unassigned) [Compound 352]

- Ki (HPK1 [4]; [8]): 0.3 nM
- Ki (HPK1 [4]; [5]): 0.3 nM
SMILES: Cc1cccc(F)c1-c1cc2cc(NC(=O)[C@@H]3[C@H](C)[C@H]3c3cnn(C)c3)ncc2c(N)n1 (single isomer, unassigned) [Compound 356]
- % IL-2 increase relative to untreated cells ([1]; assayed concentration 2.8 μM): 732%

- Ki (HPK1 [4]; [7]): 40.5 nM
- Ki (HPK1 [2]; [7]): 5800 nM
SMILES: Nc1nc(-c2ccc[nH]c2=O)cc2cc(NC(=O)C3CC3)ncc12 [Compound 42, N-(8-amino-6-(2-oxo-1,2-dihydropyridin-3-yl)-2,7-naphthyridin-3-yl) cyclopropanecarboxamide]

- Ki ([3]; Table B2, read-out: HPK1 Ki (nM), H = HTRF): 0.59 nM
- Ki (HPK1 [4]; [7]): 0.02 nM
SMILES: Cc1ccncc1-c1cc2cc(Nc3cc4n(n3)CC(=O)N(C)CC4)ncc2c(N)n1 [Compound 256, 2-[[8-amino-6-(4-methylpyridin-3-yl)-2,7-naphthyridin-3-yl]amino]-6-methyl-4H,5H,6H,7H,8H-pyrazolo[1,5-d][1,4]diazepin-7-one]
- % IL-2 increase relative to untreated cells ([1]; assayed concentration 0.31 μM): 699%

- Ki (HPK1 [4]; [8]): 0.033 nM
- Ki (HPK1 [4]; [5]): 0.033 nM
SMILES: Cc1ccncc1-c1cc2cc(Nc3ccc(CC#N)cn3)ncc2c(N)n1 [Compound 389, 2-[6-[[8-amino-6-(4-methyl-3-pyridyl)-2,7-naphthyridin-3-yl]amino]-3-pyridyl]acetonitrile]
- % IL-2 increase relative to untreated cells ([1]; assayed concentration 0.10 μM): 265%

- Ki [3, 6]: 0.013 nM
SMILES: Cc1c(N)cncc1-c1cc2cc(Nc3cc4n(n3)CC(=O)N(C)CC43CC3)ncc2c(N)n1 [Compound 414, 2′-((8-amino-6-(5-amino-4-methylpyridin-3-yl)-2,7-naphthyridin-3-yl)amino)-6′-methyl-5′,6′-dihydrospiro[cyclopropane-1,4′-pyrazolo[1,5-d][1,4]diazepin]-7′(8′H)-one]

The next lines start with the compound.

SMILES: Cc1n[nH]c(C)c1-c1cc2cc(NC(=O)[C@@H]3C[C@@H]3F)ncc2c(N)n1 (racemic) [Compound 103, (±)-cis-N-(8-amino-6-{3,5-dimethyl-1H-pyrazol-4-yl)-2,7-naphthyridin-3-yl)-2-fluorocyclopropane-1-carboxamide]
- % IL-2 increase relative to untreated cells ([1]; assayed concentration 0.31 μM): 94%
- Ki (HPK1 [2]; [5]): 3.8 nM

SMILES: CC(Oc1ccccn1)c1cc2cc(Nc3cc4n(n3)CC(=O)N(C(C)C)CC4)ncc2c(N)n1 (racemic) [Compound 419, (+/−)-2-((8-amino-6-(1-(pyridin-2-yloxy)ethyl)-2,7-naphthyridin-3-yl)amino)-6-isopropyl-5,6-dihydro-4H-pyrazolo[1,5-d][1,4]diazepin-7(8H)-one]
- Ki [3, 6]: 511 nM

SMILES: CC(C)N1CCc2cc(Nc3cc4cc(C(C)n5ccccc5=O)nc(N)c4cn3)nn2CC1=O (racemic) [Compound 420, (+/−)-2-((8-amino-6-(1-(2-oxopyridin-1(2H)-yl)ethyl)-2,7-naphthyridin-3-yl)amino)-6-isopropyl-5,6-dihydro-4H-pyrazolo[1,5-d][1,4]diazepin-7(8H)-one]
- Ki [3, 6]: 1640 nM

SMILES: Cc1ccncc1-c1cc2cc(Nc3cnn([C@H](C)C#N)c3)ncc2c(N)n1 (single isomer, unassigned) [Compound 273]
- % IL-2 increase relative to untreated cells ([1]; assayed concentration 0.93 μM): 830%
- Ki (HPK1 [4]; [7]): 0.0675 nM
- Ki (HPK1 [2]; [5]): 0.06 nM

SMILES: Cc1ccncc1-c1cc2cc(NC(=O)[C@H]3[C@@H](C)[C@@H]3c3cnn(C)c3)ncc2c(N)n1 (single isomer, unassigned) [Compound 328]
- % IL-2 increase relative to untreated cells ([1]; assayed concentration 0.93 μM): 936%
- Ki (HPK1 [4]; [7]): 0.114 nM
- Ki (HPK1 [4]; [5]): 0.11 nM

SMILES: Cc1cc(-c2ncco2)cc(F)c1-c1cc2cc(NC(=O)[C@H]3[C@H](C)[C@@H]3c3cnn(C)c3)ncc2c(N)n1 (single isomer, unassigned) [Compound 349, N-(8-amino-6-(2-fluoro-6-methyl-4-(oxazol-2-yl)phenyl)-2,7-naphthyridin-3-yl)-2-methyl-3-(1-methyl-1H-pyrazol-4-yl)cyclopropane-1-carboxamide]
- Ki [3, 6]: 6.2 nM

SMILES: Cc1cc(C(N)=O)cc(F)c1-c1cc2cc(NC(=O)[C@H]3C[C@@H]3c3cnn(C)c3)ncc2c(N)n1 (single isomer, unassigned) [Compound 351]
- Ki [3, 6]: 0.33 nM

SMILES: Cc1cc(-c2ncco2)ccc1-c1cc2cc(NC(=O)[C@H]3C[C@@H]3c3cnn(C)c3)ncc2c(N)n1 (single isomer, unassigned) [Compound 379]
- % IL-2 increase relative to untreated cells ([1]; assayed concentration 2.8 μM): 547%

SMILES: Cc1ccncc1-c1cc2cc(NC(=O)C3CC3)ncc2c(N)n1 [Compound 24, N-(8-amino-6-(4-methylpyridin-3-yl)-2,7-naphthyridin-3-yl)cyclopropanecarboxamide]
- % IL-2 increase relative to untreated cells ([1]; assayed concentration 0.93 μM): 513%
- Ki (HPK1 [4]; [7]): 0.68 nM
- Ki (HPK1 [4]; [5]): 0.68 nM

SMILES: CNC(=O)Nc1cc2cc(-c3cnccc3C)nc(N)c2cn1 [Compound 130, 1-[8-amino-6-(4-methyl-3-pyridyl)-2,7-naphthyridin-3-yl]-3-methyl-urea]
- % IL-2 increase relative to untreated cells ([1]; assayed concentration 0.93 μM): 274%
- Ki (HPK1 [4]; [7]): 2.6 nM
- Ki (HPK1 [4]; [5]): 2.6 nM

SMILES: CNC(=O)Cn1cc(Nc2cc3cc(-c4cnccc4C)nc(N)c3cn2)cn1 [Compound 184, 2-[4-[[8-amino-6-(4-methyl-3-pyridyl)-2,7-naphthyridin-3-yl]amino]pyrazol-1-yl]-N-methyl-acetamide]
- Ki (HPK1 [2]; [7]): 2.5 nM

SMILES: Cc1ccncc1-c1cc2cc(NC(=O)[C@H]3[C@@H]4CCC(C#N)[C@@H]43)ncc2c(N)n1 (stereo partly drawn) [Compound 230, (1R,5R,6S)—N-(8-amino-6-(4-methylpyridin-3-yl)-2,7-naphthyridin-3-yl)-2-cyanobicyclo[3.1.0]hexane-6-carboxamide]
- Ki (HPK1 [2]; [7]): 0.295 nM

SMILES: Cc1ccncc1-c1cc2cc(Nc3cc(C)n(CCO)n3)ncc2c(N)n1 [Compound 262, 2-(3-[[8-amino-6-(4-methylpyridin-3-yl)-2,7-naphthyridin-3-yl]amino]-5-methyl-1H-pyrazol-1-yl)ethan-1-ol]
- Ki (HPK1 [2]; [7]): 0.439 nM

SMILES: Cc1ccncc1-c1cc2cc(NC(=O)C3CC34CC4)ncc2c(N)n1 (centres unmarked) [Compound 413, N-(8-amino-6-(4-methylpyridin-3-yl)-2,7-naphthyridin-3-yl)spiro[2.2]pentane-1-carboxamide]
- Ki (HPK1 [2]; [8]): 15 nM

SMILES: Cc1c(N)cncc1-c1cc2cc(Nc3cc4n(n3)CC(=O)N(C)CC4)ncc2c(N)n1 [Compound 415, 2-((8-amino-6-(5-amino-4-methylpyridin-3-yl)-2,7-naphthyridin-3-yl)amino)-6-methyl-5,6-dihydro-4H-pyrazolo[1,5-d][1,4]diazepin-7(8H)-one]
- Ki [3, 6]: 0.21 nM

Reference: US11034692B1 (Genentech, Inc., priority 2017, dated 2021)
